target: Tyrosine-protein kinase SYK (Homo sapiens, UniProt P43405); experiment: Inhibition of human recombinant SYK by HTRF assay

Row | Structure (SMILES) | IC50 [nM]
1 | COc1ccc(-c2cccc(Nc3cc(N[C@@H]4CCCC[C@@H]4N)ccc3C(N)=O)n2)cc1 | < 1.5
2 | NC(=O)c1ccc(N[C@@H]2CCCC[C@@H]2N)cc1Nc1cccc(-c2ccc(F)c(F)c2)n1 | < 1.5
3 | Cc1cccc(Nc2cc(N[C@@H]3CCCC[C@@H]3N)ccc2C(N)=O)n1 | > 1.5

Next, values leading:

Row | IC50 [nM] | Structure (SMILES)
4 | < 1.5 | NC(=O)c1ccc(N[C@@H]2CCCC[C@@H]2N)cc1Nc1cccc(-c2ccccc2)n1
5 | < 1.5 | NC(=O)c1ccc(N[C@@H]2CCCC[C@@H]2N)cc1Nc1cccc(-c2cccc(F)c2)n1

Source: ChEMBL document CHEMBL3259636, “Phenyl carboxamide analogues as spleen tyrosine kinase (syk) inhibitors” (ACS Med Chem Lett, 2014)
